One data set concerns the target T1, Cytochrome P450 1A2 (Homo sapiens, UniProt P05177).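 Note: PubChem cytochrome P450 panel assay, CYP1A2 panel member.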
T1 sequence (P05177 whole entry): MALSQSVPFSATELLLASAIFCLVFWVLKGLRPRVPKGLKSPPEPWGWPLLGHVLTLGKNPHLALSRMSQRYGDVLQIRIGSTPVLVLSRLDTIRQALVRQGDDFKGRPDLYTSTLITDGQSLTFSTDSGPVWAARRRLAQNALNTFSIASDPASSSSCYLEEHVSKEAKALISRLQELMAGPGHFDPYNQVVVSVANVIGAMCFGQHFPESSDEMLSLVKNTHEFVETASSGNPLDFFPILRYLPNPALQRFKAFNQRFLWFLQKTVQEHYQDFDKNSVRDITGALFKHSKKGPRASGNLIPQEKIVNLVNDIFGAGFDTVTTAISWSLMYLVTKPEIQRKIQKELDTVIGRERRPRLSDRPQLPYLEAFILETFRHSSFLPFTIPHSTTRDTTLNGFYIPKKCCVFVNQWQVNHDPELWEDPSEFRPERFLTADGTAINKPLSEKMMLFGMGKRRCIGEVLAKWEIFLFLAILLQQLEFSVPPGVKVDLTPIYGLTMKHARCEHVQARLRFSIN

Another data set concerns the target Cytochrome P450 3A4 (Homo sapiens, UniProt P08684).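 Note: CYP3A4 tested as one member of a cytochrome P450 panel screen.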
For data set [1], the target named is Dual specificity tyrosine-phosphorylation-regulated kinase 1A (Rattus norvegicus, UniProt Q63470). It counts as biochemical, Homo sapiens. As to conditions: read-out: AC50.
Data set [2] relates to Vero. Kind of data set: cells. It counts as functional, cell-based. As to conditions: Chlorocebus sabaeus.
Data set [3] deals with Vero. Kind of data set: cells. It counts as functional. As to conditions: Chlorocebus sabaeus.
In a further data set the target is Cytochrome P450 2C9 (Homo sapiens, UniProt P11712).
Chain of Cytochrome P450 2C9 (P11712 whole entry): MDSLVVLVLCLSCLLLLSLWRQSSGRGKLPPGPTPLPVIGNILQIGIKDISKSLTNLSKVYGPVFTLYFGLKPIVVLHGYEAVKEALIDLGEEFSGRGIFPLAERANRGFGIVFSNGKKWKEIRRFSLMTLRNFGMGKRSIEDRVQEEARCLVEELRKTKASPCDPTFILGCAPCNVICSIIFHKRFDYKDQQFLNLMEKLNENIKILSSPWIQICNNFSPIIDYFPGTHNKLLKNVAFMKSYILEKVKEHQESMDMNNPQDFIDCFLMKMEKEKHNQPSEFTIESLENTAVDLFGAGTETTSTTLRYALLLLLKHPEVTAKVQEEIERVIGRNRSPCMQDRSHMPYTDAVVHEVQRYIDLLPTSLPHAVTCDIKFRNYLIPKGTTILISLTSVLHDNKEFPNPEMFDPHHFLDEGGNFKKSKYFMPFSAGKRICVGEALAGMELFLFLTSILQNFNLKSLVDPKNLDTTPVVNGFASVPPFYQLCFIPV
Data set [4] relates to HEK293. Briefly: cells. As to conditions: Homo sapiens.
For data set [5], the target named is T2, Calpain-2 catalytic subunit (Sus scrofa, UniProt P43367).
T2 sequence (P43367 whole entry): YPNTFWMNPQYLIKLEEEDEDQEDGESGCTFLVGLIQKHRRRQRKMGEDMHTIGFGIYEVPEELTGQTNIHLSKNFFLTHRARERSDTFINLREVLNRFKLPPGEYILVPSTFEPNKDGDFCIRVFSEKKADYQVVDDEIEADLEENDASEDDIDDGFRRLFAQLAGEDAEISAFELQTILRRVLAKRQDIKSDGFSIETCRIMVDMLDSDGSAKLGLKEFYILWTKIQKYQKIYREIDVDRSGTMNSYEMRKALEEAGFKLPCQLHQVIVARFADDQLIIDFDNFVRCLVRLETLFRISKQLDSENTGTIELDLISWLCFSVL
Kind of data set: m-calpain protease blockers, concentration series – biochemical, fluorogenic peptide substrate, dose response (AID 1420). It counts as functional.

Data set [6] deals with HEK293. Briefly: cells. As to conditions: Homo sapiens. The source holds these as a separate data set.
Data set [7] deals with HEK293. Briefly: cells. As to conditions: Homo sapiens. This is another data set of the same source.
The target of data set [8] is T3, Nucleotide-binding oligomerization domain-containing protein 1 (Homo sapiens, UniProt Q9Y239).
T3 sequence (Q9Y239 whole entry): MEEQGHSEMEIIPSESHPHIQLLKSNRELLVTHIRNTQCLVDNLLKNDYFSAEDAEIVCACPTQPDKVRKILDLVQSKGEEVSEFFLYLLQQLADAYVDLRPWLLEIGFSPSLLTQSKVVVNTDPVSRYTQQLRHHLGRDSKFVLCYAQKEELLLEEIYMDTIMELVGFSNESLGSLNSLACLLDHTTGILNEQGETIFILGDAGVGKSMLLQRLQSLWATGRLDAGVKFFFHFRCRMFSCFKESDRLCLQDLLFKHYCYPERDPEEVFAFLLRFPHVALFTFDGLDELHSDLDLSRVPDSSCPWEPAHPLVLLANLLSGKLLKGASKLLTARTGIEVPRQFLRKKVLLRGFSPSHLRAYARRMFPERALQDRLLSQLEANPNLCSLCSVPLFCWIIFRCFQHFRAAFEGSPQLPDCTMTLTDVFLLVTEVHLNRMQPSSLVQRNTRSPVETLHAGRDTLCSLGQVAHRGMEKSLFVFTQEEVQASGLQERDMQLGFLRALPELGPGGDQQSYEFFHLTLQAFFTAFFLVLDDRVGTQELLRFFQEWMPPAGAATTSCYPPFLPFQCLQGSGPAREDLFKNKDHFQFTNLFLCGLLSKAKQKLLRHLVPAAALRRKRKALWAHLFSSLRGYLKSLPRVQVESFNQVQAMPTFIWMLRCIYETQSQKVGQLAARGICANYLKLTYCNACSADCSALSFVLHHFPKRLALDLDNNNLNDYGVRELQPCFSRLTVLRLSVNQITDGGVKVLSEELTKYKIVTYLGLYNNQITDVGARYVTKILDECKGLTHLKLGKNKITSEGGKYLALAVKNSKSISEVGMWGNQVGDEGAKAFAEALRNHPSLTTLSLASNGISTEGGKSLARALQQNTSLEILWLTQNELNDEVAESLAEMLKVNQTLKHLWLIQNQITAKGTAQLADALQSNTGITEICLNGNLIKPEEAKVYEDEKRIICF
Briefly: blockers of NOD1 pathway activity – revised, SAR follow-up (AID 2333). It counts as functional.

For data set [9], the system named is HEK293. Kind of data set: NOD2 signaling inhibitors in MDP-stimulated cells, cell-based, uHTS, luminescence (AID 2001). As to conditions: Homo sapiens. It counts as functional.
Data set [10] has as its system HEK293. Briefly: inhibition of NOD1-driven NF-kB reporter – cell-based, luminescence, uHTS, primary screen (AID 1578). It counts as functional. As to conditions: Homo sapiens.
The target in a further data set is Tumor necrosis factor (Homo sapiens, UniProt P01375). Kind of data set: analog potency on TNFa NF-kB signaling – cell-based, revised, SAR follow-up (AID 2337). It counts as functional.
Chain of Tumor necrosis factor (P01375 whole entry): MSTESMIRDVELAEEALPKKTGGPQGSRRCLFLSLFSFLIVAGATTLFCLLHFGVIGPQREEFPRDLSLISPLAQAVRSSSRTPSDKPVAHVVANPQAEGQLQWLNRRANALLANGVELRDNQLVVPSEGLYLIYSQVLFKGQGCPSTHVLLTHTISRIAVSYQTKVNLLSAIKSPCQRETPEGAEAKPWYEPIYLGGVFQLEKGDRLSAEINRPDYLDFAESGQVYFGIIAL
Data set [11] has as its system HEK293. Briefly: cells. It counts as functional, cell-based. As to conditions: Homo sapiens.
Data set [12] deals with HEK293. Kind of data set: cells. It counts as functional, cell-based. As to conditions: Homo sapiens. The source holds these as a separate data set.
Data set [13] deals with T4, Carboxy-terminal domain RNA polymerase II polypeptide A small phosphatase 1 (Homo sapiens, UniProt Q9GZU7).
T4 sequence (Q9GZU7 whole entry): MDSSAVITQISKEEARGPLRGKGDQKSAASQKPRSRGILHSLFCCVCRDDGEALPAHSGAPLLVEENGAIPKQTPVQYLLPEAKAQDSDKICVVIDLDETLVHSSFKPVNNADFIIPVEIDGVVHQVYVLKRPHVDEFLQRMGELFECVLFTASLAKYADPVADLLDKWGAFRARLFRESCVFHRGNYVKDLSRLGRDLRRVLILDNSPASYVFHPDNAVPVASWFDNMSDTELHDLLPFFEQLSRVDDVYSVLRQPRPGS
Briefly: CTDSP1 inhibitors, concentration-response, biochemical, absorbance readout, ultra-high-throughput screen actives (AID 540297). It counts as functional.

Data set [14] has as its target T5, Rac GTPase-activating protein 1 (Homo sapiens, UniProt Q9H0H5).
T5 sequence (Q9H0H5 whole entry): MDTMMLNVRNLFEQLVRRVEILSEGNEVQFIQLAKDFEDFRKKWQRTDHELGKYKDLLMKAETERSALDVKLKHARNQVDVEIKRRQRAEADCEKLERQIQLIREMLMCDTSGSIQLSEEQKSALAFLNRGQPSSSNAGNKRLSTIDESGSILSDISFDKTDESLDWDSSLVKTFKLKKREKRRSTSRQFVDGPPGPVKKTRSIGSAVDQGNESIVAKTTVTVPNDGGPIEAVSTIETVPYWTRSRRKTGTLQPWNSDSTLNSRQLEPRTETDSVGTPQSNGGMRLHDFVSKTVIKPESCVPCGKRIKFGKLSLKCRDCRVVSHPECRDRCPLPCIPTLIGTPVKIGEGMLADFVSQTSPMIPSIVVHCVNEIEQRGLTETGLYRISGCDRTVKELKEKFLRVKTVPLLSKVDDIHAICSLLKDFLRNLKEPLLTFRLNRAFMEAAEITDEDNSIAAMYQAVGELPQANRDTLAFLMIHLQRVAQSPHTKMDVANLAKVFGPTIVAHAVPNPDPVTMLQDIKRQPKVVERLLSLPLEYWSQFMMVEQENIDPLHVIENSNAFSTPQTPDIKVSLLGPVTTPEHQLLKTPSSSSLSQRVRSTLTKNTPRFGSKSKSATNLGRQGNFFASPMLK
Briefly: blockers of MgcRacGAP-driven Rac1 GTP hydrolysis – biochemical, ADP Hunter fluorescence, primary and confirmatory, confirmation (AID 624330). It counts as functional.

The source made the active and inactive calls.

Chain of Cytochrome P450 3A4 (P08684 whole entry): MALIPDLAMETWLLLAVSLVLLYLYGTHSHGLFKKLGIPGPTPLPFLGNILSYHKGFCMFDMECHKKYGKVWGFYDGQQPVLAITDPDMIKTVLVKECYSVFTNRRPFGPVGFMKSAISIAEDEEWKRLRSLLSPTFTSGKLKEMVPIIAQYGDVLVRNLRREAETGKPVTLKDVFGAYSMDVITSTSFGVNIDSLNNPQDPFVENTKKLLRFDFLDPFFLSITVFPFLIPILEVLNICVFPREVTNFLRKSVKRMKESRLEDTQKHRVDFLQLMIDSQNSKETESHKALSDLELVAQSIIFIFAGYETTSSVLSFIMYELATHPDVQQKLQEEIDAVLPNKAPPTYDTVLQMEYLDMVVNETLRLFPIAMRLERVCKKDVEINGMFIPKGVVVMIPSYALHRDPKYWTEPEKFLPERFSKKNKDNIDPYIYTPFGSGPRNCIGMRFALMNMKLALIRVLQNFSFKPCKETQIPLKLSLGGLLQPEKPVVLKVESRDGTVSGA

The AC50 is the concentration giving half of the maximal activity seen. Consider `Cc1c(-c2ccc(F)cc2)nc(N)c(C#N)c1-c1cccs1`, for which the results for the half-maximal activity concentration (AC50) at Cytochrome P450 1A2 and on Cytochrome P450 3A4 were 1.78 µM (inconclusive) and “inconclusive”, respectively.
As to `O=C(Nc1cccc(-c2nc3ncccc3o2)c1)c1cc2ccccc2o1`, the AC50 in data set [1] is 0.942 µM (active).
The IC50 is the concentration at which inhibition is half-maximal. One may read the CC50 as the concentration that lowers cell viability or growth by half. For `Cc1cccnc1NC(=O)NC(=O)c1ccc(C(C)(C)C)s1`, in the data set on Vero [2], the IC50 was 22.4 µM (active). Also, the 50% cytotoxic concentration (CC50) with Vero [3] was > 25 µM (active).
Turning to `O=C(c1cccc(F)c1)N1CCC2(CC1)CCN(c1ccncc1)CC2`, the AC50 result was “inconclusive” on Cytochrome P450 3A4 and 25.1 µM (inconclusive) at Cytochrome P450 2C9.
What is called EC50 is the concentration that produces a half-maximal response. For `O=C(NC1CCCC1)C(c1ccsc1)N(Cc1ccccc1)C(=O)Cc1cccs1` (centres undefined), the EC50 with HEK293 [4] and in the data set with HEK293 [6] was > 59.7 µM (inactive) in each case. In addition, the IC50 in data set [5] is > 50 µM (not active).
As for `COc1ccc(C(O)P(=O)(OC(C)C)OC(C)C)cc1OC` (centres undefined), the concentration at half-maximal activity (AC50) is 11.2 µM (inconclusive) on Cytochrome P450 1A2 and “inconclusive” on Cytochrome P450 3A4.
Turning to `COc1ccc(N2CCN(S(=O)(=O)c3ccc4c(c3)NC(=O)C(C)S4)CC2)cc1` (centres undefined), the IC50 in the data set with HEK293 [7] is > 20 µM (inactive); in data set [8] it was 4.54 µM (active); in the data set on HEK293 [9], 7.5 µM (active); on Tumor necrosis factor it was 10.2 µM (active); with HEK293 [11] it was 12.6 µM (active); in the data set with HEK293 [12], 4.28 µM (active). The concentration giving a half-maximal response (EC50) in the data set with HEK293 [10] is 4.87 µM (active).
Consider `Cn1c2ccccc2c(=O)c2ccc(C#CC3(N)CCCCC3)cc21`, for which, in [1], the AC50 is 23.7 µM (active).
Consider `N#CCC(=O)Nc1ccc(C(=O)OCC(=O)Nc2ccc3ccccc3c2)cc1`, for which the concentration for half-maximal inhibition (IC50) in data set [13] was 68.5 µM (active).
Same read-out and setting: the value for `O=C1OC(c2ccc3c(c2)OCO3)=N/C1=C\c1ccc(C(=O)O)cc1` was 1.38 µM (active).
As to `CC(C)OP(=O)(c1ccc(N(C)C)cc1)C(Nc1ccccc1)c1ccccc1` (centres undefined), the EC50 in the data set with HEK293 [4] and in the data set with HEK293 [6] was > 59.6 µM (inactive) each time.
Regarding `COc1nc(N)nc(NC(=O)c2cccs2)c1N=O`, the EC50 in the data set on HEK293 [4] and with HEK293 [6] was > 59.6 µM (inactive) throughout. In data set [14], the half-maximal inhibitory concentration (IC50) is 116 µM (active).
For the compound `CN(C)N=Nc1nc2c(c(=O)n(C)c(=O)n2C)n1CC1CO1` (centres undefined), in the data set with Vero [2], the IC50 was 21.9 µM (active). In addition, the 50% cytotoxic concentration (CC50) in the data set on Vero [3] is > 25 µM (active).
With `COc1ccc(OC(F)(F)F)cc1CC1(C)C(=O)Nc2ccc(S(=O)(=O)NC3CCCCC3)cc21` (centres undefined), the EC50 in the data set with HEK293 [4] and in the data set on HEK293 [6] was > 59.6 µM (inactive) in each case.
Turning to `O=C(/C=C/c1ccccc1O)c1ccc(Cl)cc1`, the CC50 in the data set with Vero [3] is 19.6 µM (active).
`COc1ccc(/C=N/Nc2ncc(Br)cn2)c(OC)c1`: the half-maximal inhibitory concentration (IC50) in [13] is 19.6 µM (active).
For the compound `COc1ccc(-c2coc3cc(O)ccc3c2=O)cc1O` [CALYCOSIN], the AC50 in data set [1] was 16.1 µM (active).

Source of the values: ChEMBL document CHEMBL1201862, “PubChem BioAssay data set” (2004).
